{"source": "patent US11819492B2", "about": "“Natural product derivatives for inhibiting cellular necroptosis, ferroptosis and oxytosis” (Institut National de la Sante et de la Recherche Medicale …, priority 2016, dated 2023)", "key": {"[1]": {"tested_on": "Jurkat FADD-deficient I 2.1 cells", "experiment": "Hallmarks of TNF-α-induced necroptosis (plasma membrane permeabilization, intracellular ATP) in Jurkat FADD-deficient cells", "type": "cell-based, human", "conditions": "0-50 μM, TNF-α 10 ng/ml, 24 hours", "experimental": "Cells untreated by TNF-α are used as control (light grey curves). Cells were incubated at 37° C., 5% CO2 for 24 hours before performing the measurements of both plasma membrane permeabilization and intracellular ATP levels. Dead cells were detected by FACS analysis of Propidium Iodide-stained nuclei (FIG. 2). ATP Quantification is performed using the CellTiter-Glo® Luminescent Cell Viability Assay. The luminescent signal produced by a luciferase reaction is proportional to the amount of ATP present and the amount of ATP is directly proportional to the number of metabolically active cells (n=4) (FIG. 3)."}, "[2]": {"tested_on": "Human Peripheral Blood Lymphocytes (hPBLs)", "experiment": "Cytotoxicity on human peripheral blood lymphocytes (MTS)", "type": "cell-based", "conditions": "0-100 μM tested, 24 hours, FIG. 4", "experimental": "Viability was assessed by cell proliferation assay (MTS). % of cell viability was determined using the CellTiter 96® AQueous Non-Radioactive Cell Proliferation Assay (Promega). Data represent the quantitative analysis of six independent experiments with means±SD (n=6 individuals)."}, "[3]": {"tested_on": "rat embryonic myoblastic H9C2 cells", "experiment": "H2O2-induced necrosis, LDH release assay", "type": "cell-based", "conditions": "10 μM, 2 hours pretreatment, 800 μM H2O2 for 24 hours, FIG. 17", "experimental": "The rat embryonic myoblastic H9C2 cells were cultured at 10,000 cells/well in 96-well-plates for 24 hours at 37° C./5% CO2. […] LB corresponds to cells treated with a lysis buffer (100% of cell death). Cell cytotoxicity was determined by a colorimetric assay quantitatively measuring lactate dehydrogenase (LDH) released […]."}, "[4]": {"tested_on": "Murine hippocampal neuronal cell line HT22", "experiment": "Erastin-induced ferroptosis in HT22 cells, MTS viability assay", "type": "cell-based", "conditions": "1 μM erastin, 24 hours, FIG. 14", "experimental": "Murine hippocampal neuronal cell line HT22 was treated with 10 mM of (L)-glutamate (oxytosis initiator) or 1 μM erastin (ferroptosis initiator).\n(§1) Cells were then incubated at 37° C., 5% CO2 for 24 hours before performing MTS viability assay. Cell viability was monitored using CellTiter 96® AQueous Non-Radioactive Cell Proliferation Assay (Promega, Fitchburg, WI, USA), based on the water-soluble tetrazolium compound MTS (3-[4,5-dimethylthiazol-2-yl]-5-[3-carboxymethoxy-phenyl]-2-[4-sulfophenyl]-2H-tetrazolium, inner salt) according to the manufacturers instructions."}, "[5]": {"tested_on": "456 kinases, including eight lipid kinases", "experiment": "KINOMEscan Max competition binding assay, profiling against 456 kinases", "set-up": "species or system human", "conditions": "poor affinity = over 30% of kinase still on the affinity matrix, FIG. 8", "experimental": "This experimental approach quantitatively measures the ability of a compound to compete with an immobilized, active-site directed ligand. […] The ability of compound 1 to compete with the immobilized ligand is measured via quantitative PCR of the DNA tag. The codes reported on the FIG. 8 indicate the subclasses of protein kinases: CMGC for CDKs, MAP kinases, GSK and CDK-like kinases; AGC for Protein kinase A, G, and C families (PKA, PKC, PKG); CAMK for Ca2+/calmodulin-dependent protein kinases; CK1, Cell Kinases 1 (originally known as Casein Kinase 1); STE, STE Kinases (Homologs of yeast STErile kinases); TKL, Tyrosine Kinases-Like; TK, Tyrosine Kinases. Each kinase tested in the assay panel is marked with a circle. The hit kinase reported, RIPK1, is marked with a black circle."}, "[6]": {"tested_on": "Jurkat FADD-deficient I 2.1 cell line", "experiment": "TNF-α-induced necroptosis in Jurkat FADD-deficient cells, MTS viability assay", "type": "cell-based, human", "conditions": "TNF-α 10 ng/ml, 24 hours", "from_the_text": "TNF-α can induce necroptosis in Jurkat cells (human T lymphocytes) when FADD is deleted. This model was used to screen various libraries of chemical compounds for characterization of new inhibitors of cellular necroptosis. Details on this cell-based assay can be found in Miao and Degterev (Methods Mol. Biol. 2009, 559, 79-93). The Jurkat FADD-deficient I 2.1 cell line used was purchased from ATCC and was maintained in RPMI 1640 medium (Gibco) containing Glutamax and 15% fetal calf serum (Life Technology). Necroptosis was induced by addition of 10 ng/ml of human recombinant TNF-α (Life Technology). Necrostatin-1 (Nec-1, Enzo Life Sciences) was used as model necroptosis inhibitor. Cells were maintained in 75 cm^2 flask and passed every 2 or 3 days. Chemical collections analysed were formatted in 96-well plates with 80 molecules per plate at 10 mM in 100% DMSO. […]\nas §1, with “were” for “were then”"}, "hRPE-1 cells": {"tested_on": "hRPE-1 cells", "experiment": "Cytotoxicity on human retinal pigment epithelial cell line (MTS)", "type": "cell-based", "conditions": "0-50 μM tested, 24 hours, FIG. 5", "from_the_text": "A colorimetric MTS assay was used to calculate the percentage of cell viability."}}}
{"smiles": "COc1cc(O)c2c(c1)OC(O)(c1ccc(OCc3ccccc3)cc1)CC2=O", "note": "(stereo not drawn) [compound 1]", "values": [{"measurement": "plasma membrane permeabilization induced by TNF-α (Propidium Iodide, FACS)", "setting": "[1]; FIG. 2", "value": "inhibits"}, {"measurement": "ATP depletion induced by TNF-α (CellTiter-Glo)", "setting": "[1]; FIG. 3", "value": "inhibits"}, {"measurement": "concentration up to which not cytotoxic towards hPBLs", "setting": "[2]", "value": "≤ 20", "unit": "µM"}, {"measurement": "protection from death induced by H2O2 (LDH release)", "setting": "[3]", "value": "protects from death induced by H2O2"}, {"measurement": "concentration that protects cells from death induced by erastin", "setting": "[4]", "value": "> 25", "unit": "µM"}, {"measurement": "specificity for RIPK1 among the large panel of tested kinases", "setting": "[5]", "value": "high specificity"}, {"measurement": "protection of cell viability from death induced by TNF-α", "setting": "[6]; 0.01-50.00 μM, FIG. 1", "value": "protects cells from death induced by TNF-α"}, {"measurement": "necroptosis inhibition in the library screening", "setting": "[6]; screening at 10 μM", "value": "very efficient necroptosis inhibitor"}, {"measurement": "cytotoxicity towards hRPE-1 cells", "setting": "hRPE-1 cells", "value": "not cytotoxic"}]}
